Converted amounts (≈) assume the structure as drawn. Read-outs that look alike come from different tables or passages of the source.
Assays:
P. boydii = assay: In vitro susceptibility (MIC) against Scedosporium spp.; type: cell-based, Pseudallescheria boydii; settings: strain P. boydii 01-10-1391979, duplicate on two occasions, read-out: Arithmetic Mean MIC (mg/L) of 4 readings
Experimental: (§1) In vitro susceptibility to Compound (1) was assessed against Scedosporium spp. A stock solution of 1 mg/ml of Compound (1) was made in 100% DMSO. The stock was aliquoted and stored at −80° C.
(§2) Three strains Scedosporium prolificans and 3 strains of S. apiospermum/P. boydii were tested. Each isolate was tested in duplicate and on two separate occasions.

Scedosporium prolificans = assay: as above; type: cell-based; settings: for MIC: Lomentospora prolificans, duplicate on two occasions, read-out: Arithmetic Mean MIC (mg/L) of 4 readings
Experimental: as §1, §2

S. apiospermum = assay: as above; type: cell-based
Experimental: as §1, §2

| Compound | MIC (P. boydii) | MIC (Scedosporium prolificans; strain S. prolificans 04-11-1472398) | MIC (Scedosporium prolificans; strain S. prolificans (Austin Pathology)) | MIC (Scedosporium prolificans; strain S. prolificans MB 10028425) | Relative activity among Scedosporium spp. (Scedosporium prolificans; comparison of species tested in Table 1) | MIC (S. apiospermum; read-out: Arithmetic Mean MIC (mg/L) of 4 readings, strain S. apsiopermum 04-10-2013595, duplicate on two occasions) | MIC (S. apiospermum; strain S. apiospermum 04-10-1932310, duplicate on two occasions, read-out: Arithmetic Mean MIC (mg/L) of 4 readings) | Solubility in organic solvents (Solubility profile; acetone, alcohol, acetic acid and a majority of organic solvents) | Solubility in water (Solubility profile; water) |
| --- | --- | --- | --- | --- | --- | --- | --- | --- | --- |
| C/C(=C\c1ccc2c(c1)OCO2)[N+](=O)[O-] [Compound (1), 3,4-methylenedioxy-β-methyl-β-nitrostyrene] | 4 mg/L (≈ 19.3 µM) | 2 mg/L (≈ 9.65 µM) | 1 mg/L (≈ 4.83 µM) | 2 mg/L (≈ 9.65 µM) | most active against S. prolificans | 2 mg/L (≈ 9.65 µM) | 4 mg/L (≈ 19.3 µM) | – | – |
| O=[N+]([O-])/C=C/c1ccc2c(c1)OCO2 [Compound (2), 3,4-methylenedioxy-β-nitrostyrene] | – | – | – | – | – | – | – | soluble | non-soluble |
